Tested on: Herpes simplex II virus
Experiment: Back titration plaque assay: PFU counts at stated amounts of compound under test and arginine
Format: cell-based, Herpes simplex II virus (BSC cells)
Description: The following experiments were conducted by back titration: Herpes simplex II virus from laboratory stocks was used. BSC cells were grown to confluence in Eagles medium with 15% fetal calf serum, 150 units per milliliter of penicillin and 100 micrograms per milliliter of streptomycin. The cultures were inoculated with 500 PFU of HS II. The virons were allowed to absorb for one hour at 25° C. The tissue cultures were then washed three times with sterile PBS to remove excess media and non-absorbed virons. The cells were then incubated at 37° C. until four-plus cytopathic effects were observed. The cells were then disrupted by slow freeze-thaw two times. The suspension was then clarified by slow speed centrifugation at 4° C. The supemanant suspension was then added to confluent BSC cultures. After one hour absorption, the cells were washed with PBS twice. The cells were overlaid in defined reagent (in triplicate) Eagles media in noble agar. The cells were then incubated at 37° C. until the plaques were easily counted, usually 40 t 72 hours. the cells were then washed two times with PBS and then fixed with 10% H2CO and a 2% sodium acetate. The cells were then stained in 0.1% crystal violet in ethanol. In the tables which follow the concentration of the compound to be tested, in micrograms per milliliter, is listed across the top of the table and the concentration of arginine in micrograms per milliliter is listed down the left side of the table, the count of plaque-forming units being shown in the matrix.

[1] = compound 10 μg/ml, arginine 0 μg/ml
[2] = compound 10 μg/ml, arginine 2.5 μg/ml
[3] = compound 10 μg/ml, arginine 5.0 μg/ml
[4] = compound 10 μg/ml, arginine 7.5 μg/ml
[5] = compound 10 μg/ml, arginine 10 μg/ml
[6] = compound 10 μg/ml, arginine 15 μg/ml
[7] = compound 10 μg/ml, arginine 20 μg/ml
[8] = compound 10 μg/ml, arginine 25 μg/ml
[9] = compound 25 μg/ml, arginine 0 μg/ml
[10] = compound 25 μg/ml, arginine 2.5 μg/ml
[11] = compound 25 μg/ml, arginine 5.0 μg/ml
[12] = compound 25 μg/ml, arginine 7.5 μg/ml
[13] = compound 25 μg/ml, arginine 10 μg/ml
[14] = compound 25 μg/ml, arginine 15 μg/ml
[15] = compound 25 μg/ml, arginine 20 μg/ml
[16] = compound 25 μg/ml, arginine 25 μg/ml
[17] = compound 50 μg/ml, arginine 0 μg/ml
[18] = compound 50 μg/ml, arginine 2.5 μg/ml
[19] = compound 50 μg/ml, arginine 5.0 μg/ml
[20] = compound 50 μg/ml, arginine 7.5 μg/ml
[21] = compound 50 μg/ml, arginine 10 μg/ml
[22] = compound 50 μg/ml, arginine 15 μg/ml
[23] = compound 50 μg/ml, arginine 20 μg/ml
[24] = compound 50 μg/ml, arginine 25 μg/ml
[25] = compound 100 μg/ml, arginine 0 μg/ml
[26] = compound 100 μg/ml, arginine 2.5 μg/ml
[27] = compound 100 μg/ml, arginine 5.0 μg/ml
[28] = compound 100 μg/ml, arginine 7.5 μg/ml
[29] = compound 100 μg/ml, arginine 10 μg/ml
[30] = compound 100 μg/ml, arginine 15 μg/ml
[31] = compound 100 μg/ml, arginine 20 μg/ml
[32] = compound 100 μg/ml, arginine 25 μg/ml
[33] = compound 200 μg/ml, arginine 0 μg/ml
[34] = compound 200 μg/ml, arginine 2.5 μg/ml
[35] = compound 200 μg/ml, arginine 5.0 μg/ml
[36] = compound 200 μg/ml, arginine 7.5 μg/ml
[37] = compound 200 μg/ml, arginine 10 μg/ml
[38] = compound 200 μg/ml, arginine 15 μg/ml
[39] = compound 200 μg/ml, arginine 20 μg/ml
[40] = compound 200 μg/ml, arginine 25 μg/ml
[41] = compound 300 μg/ml, arginine 0 μg/ml
[42] = compound 300 μg/ml, arginine 2.5 μg/ml
[43] = compound 300 μg/ml, arginine 5.0 μg/ml
[44] = compound 300 μg/ml, arginine 7.5 μg/ml
[45] = compound 300 μg/ml, arginine 10 μg/ml
[46] = compound 300 μg/ml, arginine 15 μg/ml
[47] = compound 300 μg/ml, arginine 20 μg/ml
[48] = compound 300 μg/ml, arginine 25 μg/ml
[49] = compound 400 μg/ml, arginine 0 μg/ml
[50] = compound 400 μg/ml, arginine 2.5 μg/ml
[51] = compound 400 μg/ml, arginine 5.0 μg/ml
[52] = compound 400 μg/ml, arginine 7.5 μg/ml
[53] = compound 400 μg/ml, arginine 10 μg/ml
[54] = compound 400 μg/ml, arginine 15 μg/ml
[55] = compound 400 μg/ml, arginine 20 μg/ml
[56] = compound 400 μg/ml, arginine 25 μg/ml
[57] = compound 500 μg/ml, arginine 0 μg/ml
[58] = compound 500 μg/ml, arginine 2.5 μg/ml
[59] = compound 500 μg/ml, arginine 5.0 μg/ml
[60] = compound 500 μg/ml, arginine 7.5 μg/ml
[61] = compound 500 μg/ml, arginine 10 μg/ml
[62] = compound 500 μg/ml, arginine 15 μg/ml
[63] = compound 500 μg/ml, arginine 20 μg/ml
[64] = compound 500 μg/ml, arginine 25 μg/ml

NCCCCCC(N)C(=O)O (centres unmarked) [drawing 17]
P.F.U. Count [1]: 0
P.F.U. Count [2]: 0
P.F.U. Count [3]: 0
P.F.U. Count [4]: 0
P.F.U. Count [5]: 290
P.F.U. Count [6]: 799
P.F.U. Count [7]: 2.8 × 10^5
P.F.U. Count [8]: 2.8 × 10^5
P.F.U. Count [9]: 0
P.F.U. Count [10]: 0
P.F.U. Count [11]: 0
P.F.U. Count [12]: 0
P.F.U. Count [13]: 3.7 × 10^3
P.F.U. Count [14]: 4.2 × 10^3
P.F.U. Count [15]: 2.6 × 10^5
P.F.U. Count [16]: 4 × 10^5
P.F.U. Count [17]: 0
P.F.U. Count [18]: 0
P.F.U. Count [19]: 0
P.F.U. Count [20]: 0
P.F.U. Count [21]: 79
P.F.U. Count [22]: 276
P.F.U. Count [23]: 6.6 × 10^4
P.F.U. Count [24]: 3.6 × 10^4
P.F.U. Count [25]: 0
P.F.U. Count [26]: 0
P.F.U. Count [27]: 0
P.F.U. Count [28]: 0
P.F.U. Count [29]: 0
P.F.U. Count [30]: 0
P.F.U. Count [31]: 3.2 × 10^3
P.F.U. Count [32]: 6.6 × 10^3
P.F.U. Count [33]: 0
P.F.U. Count [34]: 0
P.F.U. Count [35]: 0
P.F.U. Count [36]: 0
P.F.U. Count [37]: 0
P.F.U. Count [38]: 0
P.F.U. Count [39]: 68
P.F.U. Count [40]: 654
P.F.U. Count [41]: 0
P.F.U. Count [42]: 0
P.F.U. Count [43]: 0
P.F.U. Count [44]: 0
P.F.U. Count [45]: 0
P.F.U. Count [46]: 0
P.F.U. Count [47]: 0
P.F.U. Count [48]: 0
P.F.U. Count [49]: 0
P.F.U. Count [50]: 0
P.F.U. Count [51]: 0
P.F.U. Count [52]: 0
P.F.U. Count [53]: 0
P.F.U. Count [54]: 0
P.F.U. Count [55]: 0
P.F.U. Count [56]: 0
P.F.U. Count [57]: 0
P.F.U. Count [58]: 0
P.F.U. Count [59]: 0
P.F.U. Count [60]: 0
P.F.U. Count [61]: 0
P.F.U. Count [62]: 0
P.F.U. Count [63]: 0
P.F.U. Count [64]: 0

CC(N)CCCCC(N)C(=O)O (centres unmarked) [drawing 18]
P.F.U. Count [1]: 0
P.F.U. Count [2]: 0
P.F.U. Count [3]: 0
P.F.U. Count [4]: 0
P.F.U. Count [5]: 610
P.F.U. Count [6]: 46
P.F.U. Count [7]: 2.1 × 10^5
P.F.U. Count [8]: 2.8 × 10^5
P.F.U. Count [9]: 0
P.F.U. Count [10]: 0
P.F.U. Count [11]: 0
P.F.U. Count [12]: 0
P.F.U. Count [13]: 3.7 × 10^3
P.F.U. Count [14]: 4.2 × 10^3
P.F.U. Count [15]: 2.0 × 10^5
P.F.U. Count [16]: 2.1 × 10^5
P.F.U. Count [17]: 0
P.F.U. Count [18]: 0
P.F.U. Count [19]: 0
P.F.U. Count [20]: 0
P.F.U. Count [21]: 79
P.F.U. Count [22]: 276
P.F.U. Count [23]: 1.6 × 10^4
P.F.U. Count [24]: 1.1 × 10^4
P.F.U. Count [25]: 0
P.F.U. Count [26]: 0
P.F.U. Count [27]: 0
P.F.U. Count [28]: 0
P.F.U. Count [29]: 0
P.F.U. Count [30]: 0
P.F.U. Count [31]: 1.0 × 10^3
P.F.U. Count [32]: 1.6 × 10^3
P.F.U. Count [33]: 0
P.F.U. Count [34]: 0
P.F.U. Count [35]: 0
P.F.U. Count [36]: 0
P.F.U. Count [37]: 0
P.F.U. Count [38]: 0
P.F.U. Count [39]: 760
P.F.U. Count [40]: 1.7 × 10^3
P.F.U. Count [41]: 0
P.F.U. Count [42]: 0
P.F.U. Count [43]: 0
P.F.U. Count [44]: 0
P.F.U. Count [45]: 0
P.F.U. Count [46]: 0
P.F.U. Count [47]: 163
P.F.U. Count [48]: 1.0 × 10^3
P.F.U. Count [49]: 0
P.F.U. Count [50]: 0
P.F.U. Count [51]: 0
P.F.U. Count [52]: 0
P.F.U. Count [53]: 0
P.F.U. Count [54]: 179
P.F.U. Count [55]: 310
P.F.U. Count [56]: 140
P.F.U. Count [57]: 0
P.F.U. Count [58]: 0
P.F.U. Count [59]: 0
P.F.U. Count [60]: 0
P.F.U. Count [61]: 0
P.F.U. Count [62]: 0
P.F.U. Count [63]: 0
P.F.U. Count [64]: 0

From patent US20030153618A1, “Treatment and prevention of herpes simplex infections” (priority 1999, published 2003)
